The test system of assay [1] is BAD Ser155 phosphorylation in HeLa cells. In words: BAD phosphorylation in HeLa cells (western blot band-shift / anti-phospho-Ser155 antibody). Type of assay: cell-based, human. As to conditions: for Ser155 phosphorylation following growth factor stimulation: results not shown; for induction of band-shift (Ser155 phosphorylation) of HA-BAD S112A/S136A: transfected HeLa cells treated with the agent. How it is done:
A mammalian expression vector encoding mutant HA-BAD S155A, derived from the shorter murine BAD of SEQ ID NO:3, was constructed. HA-BAD S155A has an amino acid sequence wherein the serine at a position corresponding to Ser155 is substituted with alanine. A western blot was performed on WCL prepared from cells expressing the shorter murine BAD (SEQ ID NO:3), HA-BAD S112A, HA-BAD S136A, or HA-BAD S155A, and probed with anti-HA antibody.
A western blot analysis, probed with anti-HA antibody, was performed on lysates produced from the Forskolin treated and untreated (control) cells to determine whether Forskolin could induce the phosphorylation BAD or mutant BAD.
HeLa cells transiently expressing HA-BAD, HA-BAD S155A, HA-BAD S112A/S136A, or HA-BAD S112A/S136A/S155A were treated with Forskolin or a buffer control.
The HA-BAD S112A/S136A double mutant was transiently expressed in HeLa cells, and transfected cell cultures were treated with each of the GPCR ligands, individually and as a group. A western blot analysis, probed with anti-HA antibody, was performed on lysates produced from the treated and untreated (negative control) cells. […] Forskolin (FK) and no treatment (−) were positive and negative controls, respectively (FIG. 6(a), […], respectively).
Non-transfected HeLa cells were treated with Forskolin or L-epinephrine, followed by western blot analysis of cell lysates using anti-BAD antibodies.
Transformants were treated with L-epinephrine, then lysed and subjected to anti-HA western blot analysis.
(§1) To further test whether phosphorylation of Ser155 is dependent on the PI 3-kinase/Akt pathway, HeLa cells were transfected with the mutant HA-BAD S155A and pretreated with Wortmannin, an inhibitor of PI 3-kinase. These cells were then stimulated with epidermal growth factor (EGF), lysed and analyzed by western blot analysis.
For immunoprecipitation of all HA-BAD species, 1 μg of the anti-HA antibody was added to the cell lysates, and incubated at 4° C. for one hour. Protein G agarose (Pierce) was then added (50 μl/fraction of 50% slurry) and followed by a one hour incubation at 4° C. Beads were washed with RIPA buffer, boiled in loading buffer (2% SDS, 10% glycerol, 5% β-ME, 60 mM Tris, pH 6.8, 0.002% Bromophenol Blue) and loaded onto polyacrylamide gels. After electrophoresis, proteins were transferred to nitrocellulose membranes, and blots blocked in western wash buffer (40 mM Tris, pH 8.0, 150 mM NaCl, 0.2% NP-40) with 5% BSA for one hour at room temperature. Blots were incubated with primary antibody diluted in western wash buffer with 3% BSA at room temperature for 1–2 hours, washed with western wash buffer and incubated with secondary HRP-coupled antibody diluted in western wash buffer with 1.5% BSA, and washed extensively. Polypeptides were detected with the ECL chemiluminescence according to the manufacturers instructions (Amersham).

The subject of assay [2] is BAD phosphorylation in Rat-1 cells. The experiment in a line: BAD phosphorylation in Rat-1 cells (western blot band-shift / anti-phospho-Ser155 antibody). The assay is classed as cell-based. As to conditions: for induction of band-shift of HA-BAD S112A/S136A: transfected Rat-1 fibroblasts. An excerpt:
In the absence of a phospho-Ser155 antibody, it was difficult to conclude that this band-shift was solely the result of the phosphorylation of Ser155. However, it appeared that this response was at least primarily due to the phosphorylation at this site. This was based on the combined evidence, both in vitro and in cells, as described above (FIGS. 1, 2 and 4–7) and the fact that Ser155 is the only site of BAD homologous to the substrate consensus sequence of PKA.
Whether the BAD Ser155 kinase, PKA, is also activated by growth factors, and if so, whether such activation is PI 3-kinase dependent, was investigated. […] Cell lysates were analyzed via western blot analysis, probed using anti-HA antibody. […] However, the magnitude of phosphorylation was weaker and may be more transient, than the effect of Forskolin (FIG. 9(a)). Of note, Ser155 phosphorylation following IGF-1, EGF, or PDGF stimulation was not detected in HeLa cells (results not shown).
It has been documented that Akt kinase activity, the serine kinase shown to phosphorylate BAD Ser136, is induced by growth factors and is dependent on PI 3-kinase activation (Datta et al., 1997; del Peso et al., 1997). In related experiments, Rat-1 cells were pretreated with either the PKA inhibitor H89, or the PI 3-kinase inhibitor Wortmannin (available, e.g., from Sigma, St. Louis, Mo.), followed by stimulation with Forskolin (also available from Sigma) or PDGF. […] This indicated the shift was PKA dependent (FIG. 9(b), lower panel, compare lanes 5 and 6). […] It therefore presumably had no effect on PDGF-induced activation of PI 3-kinase.
To examine whether endogenous BAD is phosphorylated on Ser155 in response to growth factors, serum-starved Rat-1 fibroblasts were stimulated with PDGF. Whole cell lysates were prepared and endogenous BAD was immunoprecipitated. Proteins were separated by SDS-PAGE, and Ser155 phosphorylation was analyzed by Western blot using the phospho-S155 antibody and an anti-BAD antibody.
(In western blotting, separated proteins are transferred to a membrane and probed.)

The target of assay [3] is GST-Bcl-XL (Homo sapiens, UniProt Q07817). In words: In vitro competition binding assay (BH3 peptides blocking GST-Bcl-XL binding to immobilized BAK BH3 peptide, ELISA). How it is done: FIG. 3(B) is a graphical representation of the results of an in vitro competition binding assay. Recombinant GST-Bcl-XL was incubated with a BAD BH3 peptide (residues 143–168 of SEQ ID NO: 2) phosphorylated on Ser155 (“BAD BH3-P”), a BAD BH3 peptide (residues 143–168 of SEQ ID NO: 2) unphosphorylated on Ser155 (“BAD BH3”), or a BAK BH3 peptide (residues 71–89; residues 1–20 of SEQ ID NO: 5) as a positive control, at the indicated concentrations. The reaction mixtures were then added to microtiter plates pre-coated with BAK BH3 peptide. The amount of bound GST-Bcl-XL was determined by ELISA using an anti-GST primary antibody and a horse-radish peroxidase-conjugated anti-mouse IgG secondary antibody with ABTS as substrate.
GST-Bcl-XL, sequence (Q07817 whole entry, the tested form may be a part): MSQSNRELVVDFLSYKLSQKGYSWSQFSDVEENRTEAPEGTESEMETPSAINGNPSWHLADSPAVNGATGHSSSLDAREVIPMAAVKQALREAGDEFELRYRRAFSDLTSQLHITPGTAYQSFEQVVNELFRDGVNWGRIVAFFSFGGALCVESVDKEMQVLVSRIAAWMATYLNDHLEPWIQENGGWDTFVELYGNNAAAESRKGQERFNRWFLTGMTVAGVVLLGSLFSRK
Whether the addition of a phosphate group on BAD Ser155 interferes with this interaction was tested by measuring the affinity of BAD BH3 peptides for Bcl-XL in an in vitro competition binding assay. Synthetic BAD BH3 peptide encompassing BAD residues 143 to 168, was incubated with recombinant GST-Bcl-XL at the indicated concentrations (FIG. 3(b)). The affinity of the BAD BH3 peptide for GST-Bcl-XL was measured as the ability of the peptide to block subsequent binding of GST-Bcl-XL to a BAK BH3 peptide when the reacted mixture was added to a microtiter plate pre-immobilized with a BAK BH3 peptide, as detected by ELISA (triplicate samples, +/−standard deviation). […]
In general terms: ELISA stands for enzyme-linked immunosorbent assay.

Assay [4] deals with BAD phosphorylation. In words: BAD phosphorylation (test system not specified). An excerpt: Similarly, inhibitors and activators of protein kinases are known and can be used as therapeutic agents (see, e.g., Levitski, 1994). […] It is preferred that the inhibitors and activators have selective actions on the kinase(s) acting upon the BAD, or fragment of BAD, of the present invention. […] Alternatively, in vivo testing could be done using a number of experimental approaches, and one example, as reported herein, utilizes the endogenous phosphorylation of BAD upon re-addition of IL-3 after withdrawal for two hours. Such standard testing systems could be used to test candidate compounds as inhibitors or activators of BAD phosphorylation.

The test system of assay [5] is Akt. In words: Akt activation in HeLa cells (anti-phospho-S473 Akt western blot). The assay is classed as cell-based, human. Particulars: serum-starved HeLa cells, pretreatment then EGF.
Excerpt: FIG. 10(B) is a series of western blots. Serum-starved HeLa cells expressing HA-BAD S155A, were pretreated with a buffer control (lanes 1 and 2), AG1478 (“AG”) (lane 3), Wortmannin (“Wm”) (lane 4), or H89 (lane 5). The cell cultures were then stimulated with a buffer control (lane 1) or EGF (lanes 2–5). Whole cell lysates were made from the cultures and the proteins were separated by SDS-PAGE. Blots were probed with either an anti-activated EGF receptor antibody (“activated EGFR”) (panel A), an anti-phospho-S473 Akt antibody (“pS473 Akt”) (panel B), or an anti-phospho-S155 BAD antibody (“pS155 BAD”) (panel D). Reblots were probed with either an anti-Akt antibody (“Akt”) (panel C) or an anti-HA BAD antibody (“HA-BAD”) (panel E).
as §1

Entries after “also recorded” stand apart in the source; their conditions may differ. Non-standard residues stand in square brackets, D forms with d. No end group written: not given here. pS = N[C@@H](COP(=O)(O)O)C(=O)O

Turning to IGF-1: insulin-like growth factor 1, the “Ser155 phosphorylation following growth factor stimulation” value in assay [1] (HeLa cells) is “not detected”. In addition, the “induction of band-shift of HA-BAD S112A/S136A” value in assay [2] was “induced a band-shift”.

In the case of PDGF, the “Ser155 phosphorylation following growth factor stimulation” value in assay [1] (HeLa cells) is given as “not detected”. Further, the “induction of phosphorylation of endogenous BAD on Ser155” value in assay [2] (serum-starved Rat-1 fibroblasts, phospho-S155 antibody) is reported as “induced the phosphorylation of endogenous BAD on Ser155”. Further, the “induction of band-shift of HA-BAD S112A/S136A” value in assay [2] is listed as “induced a band-shift”.

Consider “BAD BH3-P: Synthetic BAD BH3 peptide, residues 143–168 of SEQ ID NO: 2, phosphorylated on Ser155 (AAQRYGRELRRM[pS]DEFEGSFKGLPRP; listed as Mus musculus)”, for which the “reduction of affinity for Bcl-XL” value in assay [3] (BAD BH3 peptide phosphorylated on Ser155) is recorded as “greater than 100 fold”.

As for `CN[C@@H]1C[C@H]2O[C@@](C)([C@@H]1OC)n1c3ccccc3c3c4c(c5c6ccccc6n2c5c31)C(=O)NC4` [staurosporin], the “effect on BAD phosphorylation” value in assay [4] was “inhibits BAD phosphorylation”.

In the case of `CCCCCCCCCCCCCC(=O)O[C@@H]1[C@@H](C)[C@@]2(O)[C@@H](C=C(CO)C[C@]3(O)C(=O)C(C)=C[C@@H]23)[C@@H]2C(C)(C)[C@]12OC(C)=O` [PMA], the “effect on BAD phosphorylation” value in assay [4] is “promotes BAD phosphorylation”.

On to “BAD BH3: Synthetic BAD BH3 peptide, residues 143–168 of SEQ ID NO: 2, unphosphorylated on Ser155 (AAQRYGRELRRMSDEFEGSFKGLPRP; listed as Mus musculus)”, for which the “affinity of BAD BH3 peptide for Bcl-XL” value in assay [3] (ability to block binding of GST-Bcl-XL to plate-bound BAK BH3 peptide, compared with BAK BH3 control peptide) is listed as “affinity similar to the BAK BH3 control peptide”.

For `CNC[C@H](O)c1ccc(O)c(O)c1` [L-epinephrine, reference compound], the “induction of band-shift of endogenous BAD” value in assay [1] (non-transfected HeLa cells) is recorded as “resulted in a new band-shift”. The “induction of band-shift (Ser155 phosphorylation) of HA-BAD S112A/S136A” value in assay [1] is listed as “induced a significant band-shift; also recorded: resulted in the phosphorylation of this site”.

As to “BAD S112A: mutant of shorter murine BAD, serine corresponding to Ser112 substituted with alanine; HA- or GST-tagged”, in assay [1] (HeLa cells), the “band-shift (phosphorylation) of expressed BAD construct in response to L-epinephrine” value is on record as “significant band-shift”.

For `COc1cc2ncnc(Nc3cccc(Cl)c3)c2cc1OC` [AG1478, reference compound], the “inhibition of EGF-induced phosphorylation of BAD on Ser155” value in assay [1] (serum-starved HeLa cells transfected with HA-BAD S155A (so in the source), pretreatment then EGF, anti-phospho-S155 blot) is on record as “blocked the phosphorylation of both”. Also, the “effect on EGF-induced activation/phosphorylation of endogenous Akt” value in assay [5] was “blocked the phosphorylation of both”.

As to “ACTH: adrenocorticotropic hormone, GPCR ligand (SYSMEHFRWGKPVGKKRRPVKVYPNGAEDESAEAFPLEF; Corticotropin; UniProt P01189 138-176, looked up)”, in assay [1], the “induction of band-shift (Ser155 phosphorylation) of HA-BAD S112A/S136A” value is “neither TK (FIG. 6(a), lane 3) nor ACTH (FIG. 6(b), lane 5) alone induces a similar band-shift”.

(Values after patent US7193044B1, “Compounds and methods for regulating apoptosis, and methods of making and screening for compounds that regulate apoptosis” (Immunogen, Inc., priority 2000, dated 2007).)
